In patent US8008506B2, “Indazole compounds” (priority 2008, dated 2011):

How the values were obtained:
[1] = target: T1, human β3 adrenergic receptor (Homo sapiens, UniProt P13945); test: Test Example 1-A: human β3 adrenergic receptor agonist activity (cAMP EIA, transfected CHO cells, 24-well); format: cell-based; details: Table 1; maximum response to isoproterenol taken as 100%
T1 construct: the full length human β3 gene is obtained from a human genomic library; expressed in transfected cells; host or cells: CHO (Chinese Hamster Ovary) cells, pcDNA3, geneticin selection
Protocol: (§1) Measurement of Human β3 Adrenergic Receptor Agonist Activity
The measurement of human β3 adrenergic receptor agonist activity is carried out using CHO (Chinese Hamster Ovary) cells transfected with pcDNA3 (manufactured by Invitrogen, Inc.) to which human β3 gene has been inserted. […] This human β3 cDNA fragment is used as a probe, and the full length human β3 gene is obtained from a human genomic library (manufactured by Clontech Laboratories, Inc.). The above cells are cultured in Ham's F-12 medium containing 10% fetal bovine serum and 400 μg/ml geneticin (manufactured by Invitrogen, Inc.). These cells are seeded on a 24-well plate to a concentration of 1×10^5 cells/well, and after being cultured for about 20 hours, the cells are left to stand in serum-free Ham's F-12 medium for 2 hours. A test compound is initially dissolved in DMSO, and then is diluted stepwise with Ham's F-12 containing 20 mmol/L HEPES, 1 mmol/L isobutylmethylxanthine, and 1 mmol/L ascorbic acid. The dilution is added to the cells. After the cells are cultured for 30 minutes, and then the medium is removed, followed by addition of 0.1 ml of 1 N NaOH to the cells. The cells are left to stand for 20 minutes, and then are added with 0.1 ml of 1 N acetic acid and are stirred. The resulting cell lysate is centrifuged, and then is subjected to quantification of cAMP with cAMP EIA kit (manufactured by Cayman Chemical Co.).

[2] = target: T1, human β3 adrenergic receptor; test: Test Example 1-B: human β3 adrenergic receptor agonist activity (cAMP-Screen kit, transfected CHO cells, 96-well); format: cell-based; details: Table 2; maximum response to isoproterenol taken as 100%
Protocol: as §1
The measurement of human β3 adrenergic receptor agonist activity is carried out using CHO (Chinese Hamster Ovary) cells transfected with pcDNA3 (manufactured by Invitrogen, Inc.) to which human β3 gene has been inserted. […] This human β3 cDNA fragment is used as a probe, and the full length human β3 gene is obtained from a human genomic library (manufactured by Clontech Laboratories, Inc.). The above cells are cultured in Ham's F-12 medium containing 10% fetal bovine serum and 400 μg/ml geneticin (manufactured by Invitrogen, Inc.). These cells are seeded on a 96-well plate to a concentration of 2×10^4 cells/well, and after being cultured for about 20 hours, the cells are left to stand in 80 μL of serum-free Ham's F-12 medium for 15 minutes. A test compound is initially dissolved in DMSO, and then is diluted stepwise with Ham's F-12 containing 100 mmol/L HEPES and 1 mmol/L isobutylmethylxanthine. 20 μL of the dilution is added to the cells. After the cells are cultured for 30 minutes, the medium is removed. 0.3. ml of the Assay/lysis Buffer included in cAMP-Screen kit (manufactured by Applied Biosystems, Inc.) is added to the cells, and the cells are incubated at 37° C. for 30 minutes. The resulting cell lysate is subjected to quantification of cAMP with the cAMP-Screen kit.

[3] = tested on: urinary bladder smooth muscle isolated from common marmoset; test: Test Example 7: relaxant activity on urinary bladder smooth muscle isolated from common marmoset; details: KCl 40 mmol/L contraction, papaverine 10^−4 mol/L relaxation taken as 100%
Protocol: Common marmosets are (CLEA Japan, Inc.) exsanguinated to death, and then are subjected to laparotomy to isolate the urinary bladder therefrom. […] The strips are applied a resting tension of 1 g, and are equilibrated for at least 30 minutes. After the resting tension of the strips have been equilibrated, KCl at a final concentration of 40 mmol/L is repeatedly added to the organ bath, and it is confirmed that contraction due to KCl becomes almost constant. […] When the relaxation response at the maximum concentration of the test compound is completed, papaverine at a final concentration of 10^−4 mol/L is added, and the maximum relaxation response of each strip is determined.

T1 sequence (P13945 whole entry): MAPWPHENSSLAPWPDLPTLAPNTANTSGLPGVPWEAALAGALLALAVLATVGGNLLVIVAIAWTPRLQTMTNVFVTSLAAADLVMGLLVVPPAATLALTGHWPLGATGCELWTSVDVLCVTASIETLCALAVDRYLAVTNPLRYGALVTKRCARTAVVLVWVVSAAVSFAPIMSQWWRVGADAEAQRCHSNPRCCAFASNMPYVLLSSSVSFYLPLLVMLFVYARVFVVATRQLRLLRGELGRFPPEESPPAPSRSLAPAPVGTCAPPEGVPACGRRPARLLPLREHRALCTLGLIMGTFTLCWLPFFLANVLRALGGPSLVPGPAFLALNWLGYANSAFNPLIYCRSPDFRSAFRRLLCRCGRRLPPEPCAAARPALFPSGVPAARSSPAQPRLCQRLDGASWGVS

- β3 receptor I.A. [1]: 100%
- β3 receptor I.A. [2]: 100%
SMILES: CC(C)NCC(O)c1ccc(O)c(O)c1 (stereo not shown) [Isoproterenol, reference compound]
- relaxant activity (%) 10^−4 M ([3]; 10^−4 M): 62.8%
- relaxant activity (%) 10^−5 M ([3]; 10^−5 M): 58.0%
